Data from PMC11842024, “Reversible male contraception by targeted inhibition of serine/threonine kinase 33” (Science (New York, N.Y.), 2024).
Each block holds one compound with its values, some of them ahead of it.

Key:
STK33 [1] = molecular target: T1, STK33 (Homo sapiens, UniProt Q9BYT3); assay: NanoBRET target engagement intracellular kinase assay; format: cell-based; design: host or cells: HEK293 (HEK293T cultured); details: HEK293 cells, 2 hours incubation
Method: NanoBRET Target Engagement intracellular kinase assay. HEK293T cells were cultured in […]
The cell line underwent authentication by short tandem repeat (STR) profiling at Cytogenetics and Cell Authentication Core (CCAC) at MD Anderson Cancer Center. NanoBRET Target Engagement intracellular kinase assay, K-10 assay (Cat. # N2641), K-9 assay (Cat. # N2631), transfection reagent FuGENE HD (Cat. # E2311), transfection carrier DNA (Cat. # E4881), NanoLuc-STK33 fusion vector (Cat. # NV2111), NanoLuc-RET fusion vector (Cat. # NV1951), NanoLuc-CLK1 fusion vector (Cat. # NV1131), NanoLuc-CLK2 fusion vector (Cat. # NV1141), and NanoLuc-CLK4 fusion vector (Cat. # NV1151) were purchased from Promega. The measurement of test compound engagement with cellular target protein was performed in a 384-well format according to manufacturer’s instructions. HEK293 cells were transiently transfected with NanoLuc (STK33, RET, CLK1, CLK2, and CLK4) fusion vectors. After 36 hours of transfection, cells were treated with a fixed concentration of tracer (recommended by Promega) followed by compounds (inhibitors) for 2 hours of incubation. To determine the test compound […]
0.4 nM at a fixed tracer concentration. Staurosporine was measured in parallel as a positive control.
Freshly prepared NanoBRET Nano-Glo substrate plus extracellular NanoLuc inhibitor was then added to initiate the subsequent bioluminescence resonance energy transfer (BRET) measurements using a CLARIOstar Plus BMG LABTECH plate reader. Data analysis was done by measuring the ratio of acceptor emission to donor emission (BRET ratio) and normalized by subtracting no-tracer-control-background. IC50 values were obtained by nonlinear regression using a four-parameter equation in GraphPad Prism 7 (San Diego, CA).

[2] = Metabolic stability assay in liver microsomes (MLM); format: in vitro ADME, mouse; details: 2.0 µM, 0.5 mg protein/mL, NADPH; data >60 min is an extrapolated estimate
Method: (§1) Metabolic stability assay in liver microsomes. The stabilities of CDD-2110, CDD-2211, CDD-2212, CDD-2807, and CDD-3348 in liver microsomes with/without Uridine Diphosphate Glucuronic Acid (UDP-GA, a cofactor of UDP-glucuronosyltransferases) were performed and half-life was calculated as previously reported (36). Briefly, each CDD compound (2.0 μM) was incubated in the mouse or human liver microsomes (0.5 mg protein/mL) at 37°C in 1× PBS fortified with NADPH (1.0 mM) and with/without UDP-GA (2.5 mM). Alamethicin (25 µg/mL) as a pore forming agent was used for the glucuronidation (Table S2A). The samples were collected at specific time-points 0, 30, and 60 min in duplicate. The reactions were terminated by adding equivalent volume of ice-cold methanol (CH3OH) and vortexed. After centrifugation at 15000 g for 10 min, 3.0 μL of the supernatant was analyzed by Thermo TSQ Quantis MS coupled with a Thermo Vanquish UHPLC (San Jose, CA) equipped with a Luna C18 column (1 mm × 50 mm, 1.6 µm, Phenomenex, Torrance, CA). The column temperature was maintained at 40°C. CDD-2807 was monitored under the selected reaction monitoring (SRM) mode coupled with a positive electrospray ionization (ESI) source. The SRM ion pairs were 447→321 for CDD-2807.

[3] = Metabolic stability assay in liver microsomes (HLM); format: in vitro ADME, human; details: 2.0 µM, 0.5 mg protein/mL, NADPH; data >60 min is an extrapolated estimate
Method: as §1

STK33 [4] = molecular target: T1, STK33; assay: Kinase assay screening against STK33 at 500 nM; format: biochemical; design: purchased SelectScreen Services (ThermoFisher)
STK33 [5] = molecular target: T1, STK33; assay: LanthaScreen binding assay (ThermoFisher SelectScreen); design: purchased SelectScreen Services (ThermoFisher)
Excerpt: (§2) In vitro biochemical assays. Several small molecule assays were outsourced to SelectScreen Services (ThermoFisher) for STK33 and for off-target kinases (data sets are available on demand).
(§3) These assays are LanthaScreen (binding assay) and Z’-LYTE (activity assay). Dose-responses were done with at least 5 different concentrations in duplicates, and parameters were optimized by calculations described below and provided with standard errors.
(§4) Calculation of Kd values for kinase inhibitors that bind to the ATP pocket of a kinase from LanthaScreen binding data. DynaFit (71) was used to fit complex equilibria where a tracer is displaced by a dilution series of a kinase inhibitor. This method relies on the concentration of inhibitor, as well as the concentration of kinase and tracer, and Kd of the tracer. The latter three parameters are tabulated by ThermoFisher for each kinase in the LanthaScreen assay panel. […]
Since Kd and Ki values are defined the same way, in other words, Kd = [E] [I] / [EI] = Ki, Kd and Ki values can be compared. […]

CLK4 = CLK4 (Homo sapiens, UniProt Q9HAZ1); assay: as above; design: purchased SelectScreen Services (ThermoFisher)
Chain of CLK4 (Q9HAZ1 whole entry): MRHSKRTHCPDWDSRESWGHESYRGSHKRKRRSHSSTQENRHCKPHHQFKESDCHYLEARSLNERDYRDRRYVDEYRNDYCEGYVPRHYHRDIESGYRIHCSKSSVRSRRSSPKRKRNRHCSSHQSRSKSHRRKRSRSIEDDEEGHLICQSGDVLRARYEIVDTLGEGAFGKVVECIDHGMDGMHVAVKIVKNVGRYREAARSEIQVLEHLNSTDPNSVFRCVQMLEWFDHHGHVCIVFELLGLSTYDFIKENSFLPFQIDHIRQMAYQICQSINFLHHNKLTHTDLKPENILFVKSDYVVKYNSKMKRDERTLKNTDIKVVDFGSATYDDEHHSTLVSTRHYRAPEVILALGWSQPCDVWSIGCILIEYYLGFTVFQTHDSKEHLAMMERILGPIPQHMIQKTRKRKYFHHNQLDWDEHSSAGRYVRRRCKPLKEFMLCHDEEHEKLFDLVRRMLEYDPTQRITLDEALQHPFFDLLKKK
Excerpt: as §2, §3, §4

CLK1 = CLK1 (Homo sapiens, UniProt P49759); assay: Z'-LYTE activity assay (ThermoFisher SelectScreen); format: biochemical; design: purchased SelectScreen Services (ThermoFisher); details: [ATP] = Kmapp
Chain of CLK1 (P49759 whole entry): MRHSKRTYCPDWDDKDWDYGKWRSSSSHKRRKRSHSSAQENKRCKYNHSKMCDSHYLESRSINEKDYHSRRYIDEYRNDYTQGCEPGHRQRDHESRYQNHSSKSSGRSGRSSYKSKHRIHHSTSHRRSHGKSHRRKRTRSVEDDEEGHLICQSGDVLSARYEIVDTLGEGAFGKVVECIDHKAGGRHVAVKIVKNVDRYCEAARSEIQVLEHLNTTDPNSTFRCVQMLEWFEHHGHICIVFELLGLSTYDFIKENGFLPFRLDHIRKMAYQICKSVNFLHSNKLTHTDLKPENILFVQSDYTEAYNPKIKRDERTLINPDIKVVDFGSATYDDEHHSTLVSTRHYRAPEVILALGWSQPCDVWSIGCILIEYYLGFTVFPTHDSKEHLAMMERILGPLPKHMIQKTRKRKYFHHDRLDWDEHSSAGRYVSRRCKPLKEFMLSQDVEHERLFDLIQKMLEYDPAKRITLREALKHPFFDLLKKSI
Excerpt: as §2
(§5) These assays are LanthaScreen (binding assay) and Z’-LYTE (activity assay). Dose-responses were done with at least 5 different concentrations in duplicates, and parameters were optimized by calculations described below and provided with standard errors. […]
(§6) Calculation of Ki values for kinase inhibitors from Z’-LYTE inhibition data. The Morrison equation with [ATP] = Kmapp for competitive inhibition (GraphPad Prism 7, San Diego, CA) was used to get Ki values. Since Kd and Ki values are defined the same way, in other words, Kd = [E] [I] / [EI] = Ki, Kd and Ki values can be compared. […]

CLK2 = CLK2 (Homo sapiens, UniProt P49760); assay: Z'-LYTE activity assay (ThermoFisher SelectScreen); format: biochemical; design: purchased SelectScreen Services (ThermoFisher); details: [ATP] = Kmapp
Chain of CLK2 (P49760 whole entry): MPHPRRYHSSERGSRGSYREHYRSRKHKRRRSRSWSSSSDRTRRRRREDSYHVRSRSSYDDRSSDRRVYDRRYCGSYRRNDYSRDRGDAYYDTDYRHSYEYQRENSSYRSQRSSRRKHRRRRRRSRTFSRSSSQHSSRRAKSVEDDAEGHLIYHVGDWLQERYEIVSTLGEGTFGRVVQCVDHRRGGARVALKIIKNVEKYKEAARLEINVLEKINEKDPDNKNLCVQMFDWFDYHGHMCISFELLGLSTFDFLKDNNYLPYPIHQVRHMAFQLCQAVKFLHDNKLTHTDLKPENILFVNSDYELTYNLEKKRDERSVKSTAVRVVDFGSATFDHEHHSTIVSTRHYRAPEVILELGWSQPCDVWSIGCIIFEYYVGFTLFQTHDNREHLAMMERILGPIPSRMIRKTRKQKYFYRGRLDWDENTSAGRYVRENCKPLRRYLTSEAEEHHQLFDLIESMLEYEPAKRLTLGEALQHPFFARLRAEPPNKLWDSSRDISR
Excerpt: as §2, §5, §6

RET = RET (Homo sapiens, UniProt P07949); assay: Z'-LYTE activity assay (ThermoFisher SelectScreen); format: biochemical; design: purchased SelectScreen Services (ThermoFisher); details: [ATP] = Kmapp
Chain of RET (P07949 29-1114): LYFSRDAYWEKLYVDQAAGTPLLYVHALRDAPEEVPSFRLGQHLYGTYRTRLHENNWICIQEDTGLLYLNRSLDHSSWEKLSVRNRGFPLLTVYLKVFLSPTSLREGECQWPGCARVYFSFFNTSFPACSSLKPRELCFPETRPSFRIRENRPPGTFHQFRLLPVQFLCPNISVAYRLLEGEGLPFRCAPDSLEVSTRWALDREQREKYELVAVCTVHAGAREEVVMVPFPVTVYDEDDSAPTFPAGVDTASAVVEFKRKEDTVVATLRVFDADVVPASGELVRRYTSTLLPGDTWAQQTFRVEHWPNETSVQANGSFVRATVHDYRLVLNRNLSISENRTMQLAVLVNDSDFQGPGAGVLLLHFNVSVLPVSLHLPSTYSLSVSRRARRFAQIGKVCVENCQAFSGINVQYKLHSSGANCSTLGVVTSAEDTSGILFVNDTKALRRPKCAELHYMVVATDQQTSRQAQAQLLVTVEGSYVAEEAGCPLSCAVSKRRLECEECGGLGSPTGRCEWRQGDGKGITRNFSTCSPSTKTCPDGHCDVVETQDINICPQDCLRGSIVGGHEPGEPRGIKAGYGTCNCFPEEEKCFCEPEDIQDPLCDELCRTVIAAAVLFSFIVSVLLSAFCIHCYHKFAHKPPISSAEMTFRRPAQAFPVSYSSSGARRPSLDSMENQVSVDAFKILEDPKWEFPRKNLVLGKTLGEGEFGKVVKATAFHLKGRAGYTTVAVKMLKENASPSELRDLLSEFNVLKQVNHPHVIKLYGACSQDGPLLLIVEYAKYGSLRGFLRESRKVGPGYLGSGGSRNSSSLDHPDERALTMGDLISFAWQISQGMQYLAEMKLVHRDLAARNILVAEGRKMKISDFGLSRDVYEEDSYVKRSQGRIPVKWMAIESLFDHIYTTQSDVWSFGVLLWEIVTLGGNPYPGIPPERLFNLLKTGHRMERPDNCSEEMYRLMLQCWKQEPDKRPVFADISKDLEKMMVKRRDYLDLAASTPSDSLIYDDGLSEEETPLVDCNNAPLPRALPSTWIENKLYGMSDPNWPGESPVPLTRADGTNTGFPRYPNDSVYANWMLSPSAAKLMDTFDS
Excerpt: as §2, §5, §6

T1 sequence (Q9BYT3 whole entry): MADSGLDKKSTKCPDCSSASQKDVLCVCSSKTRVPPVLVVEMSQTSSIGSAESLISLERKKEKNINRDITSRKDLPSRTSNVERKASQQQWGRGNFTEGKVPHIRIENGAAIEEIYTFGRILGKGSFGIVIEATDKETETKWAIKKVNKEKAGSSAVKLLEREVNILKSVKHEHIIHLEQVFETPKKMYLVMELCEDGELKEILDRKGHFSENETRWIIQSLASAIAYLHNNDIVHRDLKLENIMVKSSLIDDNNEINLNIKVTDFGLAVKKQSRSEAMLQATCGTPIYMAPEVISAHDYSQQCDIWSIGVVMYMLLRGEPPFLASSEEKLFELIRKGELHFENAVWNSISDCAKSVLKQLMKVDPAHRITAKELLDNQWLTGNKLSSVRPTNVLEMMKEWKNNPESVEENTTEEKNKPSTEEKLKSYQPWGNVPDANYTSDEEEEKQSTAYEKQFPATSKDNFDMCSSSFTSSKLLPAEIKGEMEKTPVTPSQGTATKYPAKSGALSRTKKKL

Compound: CN(C)C1CCN(C(=O)c2ccc3c(c2)c(C#Cc2ccccc2-c2ccccc2)nn3C)C1 (stereo not drawn) [Compound S8]
- kinase assay screening against STK33 (STK33 [4]): not passing

Compound: CN(C)C1CCN(C(=O)c2ccc3[nH]nc(C#Cc4cccc(-c5ccccc5)c4)c3c2)C1 (stereo not drawn) [Compound S9]
- IC50 (STK33 [1]): 289 nM
- Kd (STK33 [5]): 9.9 ± 2.3 nM

Compound: CN(C)C1CCN(C(=O)c2ccc3[nH]nc(C#Cc4ccc(-c5ccccc5)cc4)c3c2)C1 (stereo not drawn) [Compound S10]
- IC50 (STK33 [1]): 8710 nM
- Kd (STK33 [5]): 17.7 ± 0.7 nM

Compound: CN(C)C1CCN(C(=O)c2ccc3[nH]nc(Cc4ccccc4-c4ccccc4)c3c2)C1 (stereo not drawn) [Compound S11]
- kinase assay screening against STK33 (STK33 [4]): not passing

Compound: ML281 [reference compound]
- Kd (CLK4): > 1000 nM
- Ki (CLK1): > 1000 nM
- Ki (CLK2): > 1000 nM
- Ki (RET): > 1000 nM

The next lines start with the values.

- IC50 (STK33 [1]): 1290 nM
Compound: O=C(c1ccc2[nH]nc(C#Cc3ccccc3-c3ccccc3)c2c1)N1CCC2(CCNCC2)C1 [Compound S5]

- IC50 (STK33 [1]): 236 nM
Compound: O=C(c1ccc2[nH]nc(C#Cc3ccccc3-c3ccccc3)c2c1)N1CC2(CCCCN2)C1 [Compound S6]

- Metabolic stability MLM, t1/2 [2]: 0.767 h
- Metabolic stability HLM, t1/2 [3]: 3.92 h
- IC50 (STK33 [1]): 168 nM
Compound: O=C(c1ccc2[nH]nc(C#Cc3ccccc3-c3ccccc3)c2c1)N1CC2(CCNCC2)C1 [Compound S7]
